Key:
Format in all cases: in vivo
[1] = tested on: ryegrass, Italian (Lolium multiflorum); test: Test A preemergence, Italian ryegrass; conditions: 0 to 100 scale (0 no effect, 100 complete control)
In short: (§1)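 Visual injury scores (0 no effect to 100 complete control) taken about 10 days after treatment, relative to untreated plants. Treatments were directed soil spray at planting for preemergence, or foliar application to one- to two-leaf plants (2-10 cm) for postemergence, with surfactant-containing formulations in loam–sand pots.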

[2] = tested on: galium (catchweed bedstraw, Galium aparine); test: Test A postemergence, galium; conditions: visual injury, 0 to 100 scale (0 no effect, 100 complete control), approximately 10 days
In short: as §1

[3] = tested on: kochia (Kochia scoparia); test: Test A preemergence, kochia; conditions: 0 to 100 scale (0 no effect, 100 complete control)
In short: as §1

[4] = tested on: barnyardgrass (Echinochloa crus-galli); test: Test A postemergence, barnyardgrass; conditions: visual injury, 0 to 100 scale (0 no effect, 100 complete control), approximately 10 days
In short: as §1

[5] = tested on: barnyardgrass (Echinochloa crus-galli); test: Test A preemergence, barnyardgrass; conditions: 0 to 100 scale (0 no effect, 100 complete control)
In short: as §1

[6] = tested on: barnyardgrass (Echinochloa crus-galli); test: Test B flooded paddy test, barnyardgrass; conditions: 500 g ai/ha, applied to paddy water, visual rating after 13 to 15 days, scale 0 (no effect) to 100 (complete control)
In short: (§2)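 Ratings were visual and made relative to untreated controls after 13 to 15 greenhouse days.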

[7] = tested on: foxtail, giant (Setaria faberii); test: Test A preemergence, giant foxtail; conditions: 0 to 100 scale (0 no effect, 100 complete control)
In short: as §1

[8] = tested on: rice (Oryza sativa); test: Test B flooded paddy test, rice; conditions: 500 g ai/ha, applied to paddy water, visual rating after 13 to 15 days, scale 0 (no effect) to 100 (complete control)
In short: as §2

[9] = tested on: corn (Zea mays); test: Test A postemergence, corn; conditions: visual injury, 0 to 100 scale (0 no effect, 100 complete control), approximately 10 days
In short: as §1

[10] = tested on: foxtail, giant (Setaria faberii); test: Test A postemergence, giant foxtail; conditions: visual injury, 0 to 100 scale (0 no effect, 100 complete control), approximately 10 days
In short: as §1

[11] = tested on: pigweed (Amaranthus retroflexus); test: Test A postemergence, pigweed; conditions: visual injury, 0 to 100 scale (0 no effect, 100 complete control), approximately 10 days
In short: as §1

[12] = tested on: ducksalad (Heteranthera limosa); test: Test B flooded paddy test, ducksalad; conditions: 500 g ai/ha, applied to paddy water, visual rating after 13 to 15 days, scale 0 (no effect) to 100 (complete control)
In short: as §2

[13] = tested on: wheat (Triticum aestivum); test: Test A postemergence, wheat; conditions: visual injury, 0 to 100 scale (0 no effect, 100 complete control), approximately 10 days
In short: as §1

[14] = tested on: ragweed (common ragweed, Ambrosia elatior); test: Test A preemergence, ragweed; conditions: 0 to 100 scale (0 no effect, 100 complete control)
In short: as §1

[15] = tested on: kochia (Kochia scoparia); test: Test A postemergence, kochia; conditions: visual injury, 0 to 100 scale (0 no effect, 100 complete control), approximately 10 days
In short: as §1

[16] = tested on: sedge, umbrella (small-flower umbrella sedge, Cyperus difformis); test: Test B flooded paddy test, umbrella sedge; conditions: 500 g ai/ha, applied to paddy water, visual rating after 13 to 15 days, scale 0 (no effect) to 100 (complete control)
In short: as §2

[17] = tested on: ragweed (common ragweed, Ambrosia elatior); test: Test A postemergence, ragweed; conditions: visual injury, 0 to 100 scale (0 no effect, 100 complete control), approximately 10 days
In short: as §1

[18] = tested on: blackgrass (Alopecurus myosuroides); test: Test A postemergence, blackgrass; conditions: visual injury, 0 to 100 scale (0 no effect, 100 complete control), approximately 10 days
In short: as §1

[19] = tested on: pigweed (Amaranthus retroflexus); test: Test A preemergence, pigweed; conditions: 0 to 100 scale (0 no effect, 100 complete control)
In short: as §1

[20] = tested on: ryegrass, Italian (Lolium multiflorum); test: Test A postemergence, Italian ryegrass; conditions: visual injury, 0 to 100 scale (0 no effect, 100 complete control), approximately 10 days
In short: as §1

| Structure (SMILES) | Plant response rating, Ryegrass, Italian ([1]; 125 g ai/ha) | Plant response rating, Ryegrass, Italian ([1]; 500 g ai/ha) | Plant response rating, Galium ([2]; 125 g ai/ha) | Plant response rating, Galium ([2]; 500 g ai/ha) | Plant response rating, Kochia ([3]; 125 g ai/ha) | Plant response rating, Kochia ([3]; 500 g ai/ha) | Plant response rating, Barnyardgrass ([4]; 125 g ai/ha) | Plant response rating, Barnyardgrass ([4]; 500 g ai/ha) | Plant response rating, Barnyardgrass ([5]; 125 g ai/ha) | Plant response rating, Barnyardgrass ([5]; 500 g ai/ha) | Plant response rating, Barnyardgrass (Flood) [6] | Plant response rating, Foxtail, Giant ([7]; 125 g ai/ha) | Plant response rating, Foxtail, Giant ([7]; 500 g ai/ha) | Plant response rating, Rice (Flood) [8] | Plant response rating, Corn ([9]; 125 g ai/ha) | Plant response rating, Corn ([9]; 500 g ai/ha) | Plant response rating, Foxtail, Giant ([10]; 125 g ai/ha) | Plant response rating, Foxtail, Giant ([10]; 500 g ai/ha) | Plant response rating, Pigweed ([11]; 125 g ai/ha) | Plant response rating, Pigweed ([11]; 500 g ai/ha) | other results |
| --- | --- | --- | --- | --- | --- | --- | --- | --- | --- | --- | --- | --- | --- | --- | --- | --- | --- | --- | --- | --- | --- |
| O=C1NCC(c2cccc(OCc3ccccc3)c2)C1C(=O)Nc1ccccc1F (stereo not drawn) [Compound 63] | 0 | 0 | 0 | 0 | 0 | 0 | 0 | 0 | 0 | 0 | 0 | 0 | 0 | 0 | 0 | 0 | 0 | 0 | 0 | 0 | Plant response rating, Ducksalad (Flood) [12]: 35; Plant response rating, Wheat ([13]; 125 g ai/ha): 0; Plant response rating, Wheat ([13]; 500 g ai/ha): 0; Plant response rating, Ragweed ([14]; 125 g ai/ha): 0; Plant response rating, Ragweed ([14]; 500 g ai/ha): 0; Plant response rating, Kochia ([15]; 125 g ai/ha): 0; Plant response rating, Kochia ([15]; 500 g ai/ha): 0; Plant response rating, Sedge, Umbrella (Flood) [16]: 0; Plant response rating, Ragweed ([17]; 125 g ai/ha): 0; Plant response rating, Ragweed ([17]; 500 g ai/ha): 0; Plant response rating, Blackgrass ([18]; 125 g ai/ha): 0; Plant response rating, Blackgrass ([18]; 500 g ai/ha): 0; Plant response rating, Pigweed ([19]; 125 g ai/ha): 0; Plant response rating, Pigweed ([19]; 500 g ai/ha): 0; Plant response rating, Ryegrass, Italian ([20]; 125 g ai/ha): 0; Plant response rating, Ryegrass, Italian ([20]; 500 g ai/ha): 0 |
| O=C1NCC(c2cccc(OCc3ccccc3)c2)C1C(=O)Nc1ccc(F)cc1F (stereo not drawn) [Compound 64] | 0 | 0 | 0 | 0 | 0 | 0 | 0 | 0 | 0 | 0 | 0 | 0 | 0 | 0 | 0 | 0 | 0 | 0 | 0 | 0 | Plant response rating, Ducksalad (Flood) [12]: 35; Plant response rating, Wheat ([13]; 125 g ai/ha): 0; Plant response rating, Wheat ([13]; 500 g ai/ha): 0; Plant response rating, Ragweed ([14]; 125 g ai/ha): 0; Plant response rating, Ragweed ([14]; 500 g ai/ha): 0; Plant response rating, Kochia ([15]; 125 g ai/ha): 0; Plant response rating, Kochia ([15]; 500 g ai/ha): 0; Plant response rating, Sedge, Umbrella (Flood) [16]: 0; Plant response rating, Ragweed ([17]; 125 g ai/ha): 0; Plant response rating, Ragweed ([17]; 500 g ai/ha): 0; Plant response rating, Blackgrass ([18]; 125 g ai/ha): 0; Plant response rating, Blackgrass ([18]; 500 g ai/ha): 0; Plant response rating, Pigweed ([19]; 125 g ai/ha): 0; Plant response rating, Pigweed ([19]; 500 g ai/ha): 0; Plant response rating, Ryegrass, Italian ([20]; 125 g ai/ha): 0; Plant response rating, Ryegrass, Italian ([20]; 500 g ai/ha): 0 |
| O=C1NCC(c2cccc(OCc3ccccc3)c2)C1C(=O)Nc1cccc(F)c1F (stereo not drawn) [Compound 65] | 0 | 0 | 0 | 0 | 0 | 0 | 0 | 0 | 0 | 0 | 0 | 0 | 0 | 0 | 0 | 0 | 0 | 0 | 0 | 0 | Plant response rating, Ducksalad (Flood) [12]: 0; Plant response rating, Wheat ([13]; 125 g ai/ha): 0; Plant response rating, Wheat ([13]; 500 g ai/ha): 0; Plant response rating, Ragweed ([14]; 125 g ai/ha): 0; Plant response rating, Ragweed ([14]; 500 g ai/ha): 0; Plant response rating, Kochia ([15]; 125 g ai/ha): 0; Plant response rating, Kochia ([15]; 500 g ai/ha): 0; Plant response rating, Sedge, Umbrella (Flood) [16]: 0; Plant response rating, Ragweed ([17]; 125 g ai/ha): 0; Plant response rating, Ragweed ([17]; 500 g ai/ha): 0; Plant response rating, Blackgrass ([18]; 125 g ai/ha): 0; Plant response rating, Blackgrass ([18]; 500 g ai/ha): 0; Plant response rating, Pigweed ([19]; 125 g ai/ha): 0; Plant response rating, Pigweed ([19]; 500 g ai/ha): 0; Plant response rating, Ryegrass, Italian ([20]; 125 g ai/ha): 0; Plant response rating, Ryegrass, Italian ([20]; 500 g ai/ha): 0 |

— patent publication US10405547B2, “Substituted cyclic amides as herbicides” (FMC Corporation, priority 2015, dated 2019)
